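Cells were grown in 96-well plates and exposed to each compound for 48 hours at five concentrations; endpoints were interpolated linearly between bracketing concentrations, or set to the highest concentration if not reached. GI50: concentration for 50% inhibition of growth. The concentration for full growth arrest is given as TGI.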
Tests used:
Test in all cases: NCI anticancer screen, dose series, 48 h
COLO 205 colon = test system: COLO 205 colon
K-562 leukemia = test system: K-562 leukemia
UO-31 renal = test system: UO-31 renal
DU-145 prostate = test system: DU-145 prostate
SNB-75 CNS = test system: SNB-75 CNS
MCF7 breast = test system: MCF7 breast
NCI-H23 lung = test system: NCI-H23 lung
786-0 renal = test system: 786-0 renal
SF-295 CNS = test system: SF-295 CNS
U251 CNS = test system: U251 CNS
IGROV1 ovarian = test system: IGROV1 ovarian
OVCAR-8 ovarian = test system: OVCAR-8 ovarian
SK-MEL-2 melanoma = test system: SK-MEL-2 melanoma
HCC-2998 colon = test system: HCC-2998 colon
NCI/ADR-RES ovarian = test system: NCI/ADR-RES ovarian
T-47D breast = test system: T-47D breast
HT29 colon = test system: HT29 colon
SN12C renal = test system: SN12C renal
SK-OV-3 ovarian = test system: SK-OV-3 ovarian
RPMI-8226 leukemia = test system: RPMI-8226 leukemia
LOX IMVI melanoma = test system: LOX IMVI melanoma
M14 melanoma = test system: M14 melanoma
TK-10 renal = test system: TK-10 renal
SNB-19 CNS = test system: SNB-19 CNS
A549 NSCLC = test system: A549 NSCLC
A498 renal = test system: A498 renal
MALME-3M melanoma = test system: MALME-3M melanoma
SF-539 CNS = test system: SF-539 CNS
KM12 colon = test system: KM12 colon
BT-549 breast = test system: BT-549 breast
SK-MEL-5 melanoma = test system: SK-MEL-5 melanoma
HOP-92 NSCLC = test system: HOP-92 NSCLC
NCI-H522 lung = test system: NCI-H522 lung
OVCAR-3 ovarian = test system: OVCAR-3 ovarian
OVCAR-5 ovarian = test system: OVCAR-5 ovarian
HCT-15 colon = test system: HCT-15 colon
HOP-62 NSCLC = test system: HOP-62 NSCLC
CAKI-1 renal = test system: CAKI-1 renal
HL-60(TB) leukemia = test system: HL-60(TB) leukemia
PC-3 prostate = test system: PC-3 prostate
CCRF-CEM leukemia = test system: CCRF-CEM leukemia
NCI-H460 lung = test system: NCI-H460 lung
UACC-257 melanoma = test system: UACC-257 melanoma
OVCAR-4 ovarian = test system: OVCAR-4 ovarian
MDA-MB-231 breast = test system: MDA-MB-231 breast
HS 578T breast = test system: HS 578T breast
EKVX NSCLC = test system: EKVX NSCLC
HCT-116 colon = test system: HCT-116 colon
MOLT-4 leukemia = test system: MOLT-4 leukemia
SK-MEL-28 melanoma = test system: SK-MEL-28 melanoma
SF-268 CNS = test system: SF-268 CNS
RXF 393 renal = test system: RXF 393 renal
ACHN renal = test system: ACHN renal
SW-620 colon = test system: SW-620 colon
MDA-MB-435 = test system: MDA-MB-435
UACC-62 melanoma = test system: UACC-62 melanoma
NCI-H226 lung = test system: NCI-H226 lung

Compound: CN(c1ccc(NC(=O)Nc2ccc(OC(F)(F)F)cc2)cc1)c1ccnc(Nc2cccc(S(N)(=O)=O)c2)n1
- GI50 (COLO 205 colon): 0.317 µM
- TGI (COLO 205 colon): 3.5 µM
- GI50 (K-562 leukemia): 0.0874 µM
- TGI (K-562 leukemia): 4.31 µM
- GI50 (UO-31 renal): 4.63 µM
- TGI (UO-31 renal): 11.9 µM
- GI50 (DU-145 prostate): 3.26 µM
- TGI (DU-145 prostate): 6.46 µM
- GI50 (SNB-75 CNS): 2.38 µM
- TGI (SNB-75 CNS): 6.61 µM
- GI50 (MCF7 breast): 1.06 µM
- TGI (MCF7 breast): 5.56 µM
- GI50 (NCI-H23 lung): 2.15 µM
- TGI (NCI-H23 lung): 6.25 µM
- GI50 (786-0 renal): 5.25 µM
- TGI (786-0 renal): 12 µM
- GI50 (SF-295 CNS): 0.861 µM
- TGI (SF-295 CNS): 6.48 µM
- GI50 (U251 CNS): 3.07 µM
- TGI (U251 CNS): 6.64 µM
- GI50 (IGROV1 ovarian): 1.73 µM
- TGI (IGROV1 ovarian): 7.45 µM
- GI50 (OVCAR-8 ovarian): 3.07 µM
- TGI (OVCAR-8 ovarian): 7.17 µM
- GI50 (SK-MEL-2 melanoma): 4.57 µM
- TGI (SK-MEL-2 melanoma): 9.7 µM
- GI50 (HCC-2998 colon): 5.11 µM
- TGI (HCC-2998 colon): 9.27 µM
- GI50 (NCI/ADR-RES ovarian): 12.6 µM
- TGI (NCI/ADR-RES ovarian): 25 µM
- GI50 (T-47D breast): 3.51 µM
- TGI (T-47D breast): 9.35 µM
- GI50 (HT29 colon): 1.35 µM
- TGI (HT29 colon): 5.95 µM
- GI50 (SN12C renal): 2.27 µM
- TGI (SN12C renal): 11.5 µM
- GI50 (SK-OV-3 ovarian): 4.65 µM
- TGI (SK-OV-3 ovarian): 8.96 µM
- GI50 (RPMI-8226 leukemia): 2.7 µM
- TGI (RPMI-8226 leukemia): 10.1 µM
- GI50 (LOX IMVI melanoma): 0.725 µM
- TGI (LOX IMVI melanoma): 3.97 µM
- GI50 (M14 melanoma): 3.39 µM
- TGI (M14 melanoma): 8.03 µM
- GI50 (TK-10 renal): 6.21 µM
- TGI (TK-10 renal): 13 µM
- GI50 (SNB-19 CNS): 5.49 µM
- TGI (SNB-19 CNS): 14.3 µM
- GI50 (A549 NSCLC): 2.68 µM
- TGI (A549 NSCLC): 9.83 µM
- GI50 (A498 renal): 1.15 µM
- TGI (A498 renal): 3.37 µM
- GI50 (MALME-3M melanoma): 3.84 µM
- TGI (MALME-3M melanoma): 8.34 µM
- GI50 (SF-539 CNS): 0.591 µM
- TGI (SF-539 CNS): 5.47 µM
- GI50 (KM12 colon): 0.0157 µM
- TGI (KM12 colon): 3.99 µM
- GI50 (BT-549 breast): 4.31 µM
- TGI (BT-549 breast): 8.3 µM
- GI50 (SK-MEL-5 melanoma): 3.96 µM
- TGI (SK-MEL-5 melanoma): 7.56 µM
- GI50 (HOP-92 NSCLC): 2.36 µM
- TGI (HOP-92 NSCLC): 6.95 µM
- GI50 (NCI-H522 lung): 3.41 µM
- TGI (NCI-H522 lung): 7.36 µM
- GI50 (OVCAR-3 ovarian): 3.05 µM
- TGI (OVCAR-3 ovarian): 6.69 µM
- GI50 (OVCAR-5 ovarian): 5.47 µM
- TGI (OVCAR-5 ovarian): 13.7 µM
- GI50 (HCT-15 colon): 5.34 µM
- TGI (HCT-15 colon): 15.3 µM
- GI50 (HOP-62 NSCLC): 3.71 µM
- TGI (HOP-62 NSCLC): 8.1 µM
- GI50 (CAKI-1 renal): 6.45 µM
- TGI (CAKI-1 renal): 20.8 µM
- GI50 (HL-60(TB) leukemia): 2.7 µM
- TGI (HL-60(TB) leukemia): 6.36 µM
- GI50 (PC-3 prostate): 1.45 µM
- TGI (PC-3 prostate): 5.72 µM
- GI50 (CCRF-CEM leukemia): 0.412 µM
- TGI (CCRF-CEM leukemia): 25 µM
- GI50 (NCI-H460 lung): 0.428 µM
- TGI (NCI-H460 lung): 4.51 µM
- GI50 (UACC-257 melanoma): 3.77 µM
- TGI (UACC-257 melanoma): 9.14 µM
- GI50 (OVCAR-4 ovarian): 3.06 µM
- TGI (OVCAR-4 ovarian): 8.03 µM
- GI50 (MDA-MB-231 breast): 4.92 µM
- TGI (MDA-MB-231 breast): 15.1 µM
- GI50 (HS 578T breast): 4.14 µM
- TGI (HS 578T breast): 17 µM
- GI50 (EKVX NSCLC): 5.33 µM
- TGI (EKVX NSCLC): 12.4 µM
- GI50 (HCT-116 colon): 1.73 µM
- TGI (HCT-116 colon): 5.7 µM
- GI50 (MOLT-4 leukemia): 1.11 µM
- TGI (MOLT-4 leukemia): 4.16 µM
- GI50 (SK-MEL-28 melanoma): 3.42 µM
- TGI (SK-MEL-28 melanoma): 7 µM
- GI50 (SF-268 CNS): 2.34 µM
- TGI (SF-268 CNS): 6.74 µM
- GI50 (RXF 393 renal): 2.13 µM
- TGI (RXF 393 renal): 6.04 µM
- GI50 (ACHN renal): 5.42 µM
- TGI (ACHN renal): 15.5 µM
- GI50 (SW-620 colon): 2.93 µM
- TGI (SW-620 colon): 6.62 µM
- GI50 (MDA-MB-435): 3.15 µM
- TGI (MDA-MB-435): 6.68 µM
- GI50 (UACC-62 melanoma): 3.02 µM
- TGI (UACC-62 melanoma): 7.13 µM
- GI50 (NCI-H226 lung): 3.28 µM
- TGI (NCI-H226 lung): 9.51 µM
